Measurements: US20240115715A1, “PHARMACEUTICAL COMPOSITIONS FOR VAPORIZATION AND INHALATION” (GROW BIOTECH PLC, priority 2022, published 2024)

Test: Thermogravimetric analysis (TGA) / DSC of API vaporisation from crosslinked β-cyclodextrin micro sponge complex under nitrogen purge
Assay type: physicochemical
Experimental: Differential scanning calorimetry (“DSC”) and thermogravimetric analysis (“TGA”) was performed on a Netzsch STA 409PC/PG with Infrared (“IR”) analysis of the volatiles under a purge of nitrogen gas. TGA was completed at a temperature of 250° C.
The suitability of an API for vaping from the insoluble β-cyclodextrin micro sponge, or from other crosslinked polysaccharide micro sponges, can be tested using TGA. When TGA is applied, a sample of API bound with the insoluble β-cyclodextrin micro sponge is heated at a constant rate, simulating the heat used in a vaporisation device. The sample is kept under a constant flow of nitrogen gas, simulating the inhalation of the user, drawing volatile compounds away from the heated sample.
Vaporization kinetics refer to the rate of dissociation of the API as vapour from the micro sponge, as determined by TGA.

## C=C(C)[C@@H]1CCC(C)=C[C@H]1c1c(O)cc(CCCCC)cc1O [CBD, cannabidiol]
Example I, ramp rate 10° C. min^-1
  onset temperature of vaporisation of CBD (TGA): 160 °C

## CCCCCc1cc(O)c(C/C=C(\C)CCC=C(C)C)c(O)c1 [CBG, cannabigerol]
Examples II, IV, V, VI, ramp rate 5° C. min^-1
  onset temperature of vaporisation of API (TGA): 190 °C

## CCCCCc1cc(O)c(C/C=C(\C)CCC=C(C)C)c(O)c1C(=O)O [CBGA, cannabigerolic acid]
Example III, ramp rate 5° C. min^-1
  onset temperature of vaporisation of CBG following decarboxylation from CBGA (TGA): 190 °C
